Data taken from patent US9145426B2, “Pyrrolidine-fused thiadiazine dioxide compounds as BACE inhibitors, compositions, and their use” (Merck Sharp & Dohme Corp., priority 2011, dated 2015).

Legend:
[1] = biological target: purified human autoBACE-2 (Homo sapiens, UniProt Q9Y5Z0); assay: BACE-2 Assay (BACE-HTRF assay); type: biochemical; conditions: calculated from IC50 using the Cheng-Prusoff equation
Method: DMSO was present at 5% final concentration in the assay. Following laser excitation of sample wells at 320 nm, the fluorescence signal at 620 nm was collected for 400 ms following a 50 μs delay on a RUBYstar HTRF plate reader (BMG Labtechnologies). […] The Ki values were calculated from the IC50 using the Cheng-Prusoff equation.

[2] = biological target: soluble human BACE1 catalytic domain (Homo sapiens (Human), UniProt P56817); assay: BACE1 HTRF FRET Assay; type: biochemical; conditions: calculated from IC50 using the Cheng-Prusoff equation; read-out: BACE-1 Ki
Source text: Na^+-Acetate pH 5.0; 1% Brij-35; Glycerol; Dimethyl Sulfoxide (DMSO); Recombinant human soluble BACE1 catalytic domain (>95% pure); APP Swedish mutant peptide substrate (QSY7-APP^swe-Eu): QSY7-[…]-Europium-amide.
A homogeneous time-resolved FRET assay was used to determine IC50 values for inhibitors of the soluble human BACE1 catalytic domain. This assay monitored the increase of 620 nm fluorescence that resulted from BACE1 cleavage of an APPswedish APP^swe mutant peptide FRET substrate (QSY7-[…]-Europium-amide). This substrate contained an N-terminal QSY7 moiety that served as a quencher of the C-terminal Europium fluorophore (620 nm Em). In the absence of enzyme activity, 620 nm fluorescence was low in the assay and increased linearly over 3 hours in the presence of uninhibited BACE1 enzyme. Inhibition of BACE1 cleavage of the QSY7-APP^swe-Eu substrate by inhibitors was manifested as a suppression of 620 nm fluorescence.
Reactions were initiated by addition of 10 μl of 600 nM QSY7-APP^swe-Eu substrate (200 nM final) to give a final reaction volume of 30 μl in a 384 well Nunc HTRF plate. The reactions were incubated at 30° C. for 1.5 hours. The 620 nm fluorescence was then read on a Rubystar HTRF plate reader (BMG Labtechnologies) using a 50 […]s delay followed by a 400 millisecond acquisition time window. Inhibitor IC50 values were derived from non-linear regression analysis of concentration response curves.

soluble human BACE1 catalytic domain, sequence (P56817 75-416): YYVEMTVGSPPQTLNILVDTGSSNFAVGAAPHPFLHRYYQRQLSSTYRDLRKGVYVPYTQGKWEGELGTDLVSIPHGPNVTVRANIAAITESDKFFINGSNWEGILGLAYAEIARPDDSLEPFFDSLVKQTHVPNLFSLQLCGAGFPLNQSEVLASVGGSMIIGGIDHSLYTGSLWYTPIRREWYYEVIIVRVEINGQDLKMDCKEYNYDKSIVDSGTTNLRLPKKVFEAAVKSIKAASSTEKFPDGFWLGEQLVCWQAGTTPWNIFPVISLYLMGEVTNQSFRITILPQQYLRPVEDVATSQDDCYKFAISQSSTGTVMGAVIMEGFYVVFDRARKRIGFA
purified human autoBACE-2, sequence (Q9Y5Z0 63-518 limits assumed): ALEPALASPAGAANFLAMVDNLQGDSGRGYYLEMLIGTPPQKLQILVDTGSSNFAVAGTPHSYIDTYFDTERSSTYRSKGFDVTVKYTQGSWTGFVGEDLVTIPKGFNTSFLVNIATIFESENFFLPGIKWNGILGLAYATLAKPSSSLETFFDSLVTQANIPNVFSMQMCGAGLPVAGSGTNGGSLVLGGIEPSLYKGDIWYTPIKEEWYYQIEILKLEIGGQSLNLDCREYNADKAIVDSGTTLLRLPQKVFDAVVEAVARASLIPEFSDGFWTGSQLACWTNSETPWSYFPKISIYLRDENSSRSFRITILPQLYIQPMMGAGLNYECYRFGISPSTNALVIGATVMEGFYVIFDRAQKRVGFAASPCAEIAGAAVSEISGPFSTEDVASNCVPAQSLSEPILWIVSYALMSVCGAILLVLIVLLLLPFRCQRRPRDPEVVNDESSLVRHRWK

**Q.** How did the Ki [1] turn out when `COc1nc(N2C[C@@H]3[C@](c4ccccc4)(C2)NC(=N)N(C)S3(=O)=O)nc(C)c1F` [Ex. 1] was run?
**A.** Its Ki is 16 nM.

**Q.** `CCOCc1cc(OC)nc(N2CC3C(c4ccccc4)(C2)NC(=N)N(C)S3(=O)=O)c1` (racemic) [Ex. 11] was tested. Which Ki [2] did it give?
**A.** The Ki was 61 nM.

**Q.** Which Ki [1] does the source give for `COc1nc(N2C[C@@H]3[C@](c4ccc(F)cc4)(C2)NC(=N)N(C)S3(=O)=O)nc(C)c1F` (stereo in doubt) [Ex. 2] here?
**A.** Its Ki is 14 nM.

**Q.** How did the Ki [1] turn out when `COc1nc(N2C[C@@H]3[C@](c4cc(F)ccc4F)(C2)NC(=N)N(C)S3(=O)=O)nc(C)c1F` (stereo in doubt) [Ex. 3] was run?
**A.** Its Ki is 14 nM.

**Q.** Which Ki [2] does the source give for `CC(=O)N1CC2[C@](c3cc(NC(=O)c4ccc(F)cn4)ccc3F)(C1)NC(=N)N(C)S2(=O)=O` (mixture of isomers) [Ex. 18] here?
**A.** Its Ki is 32 nM.

**Q.** And the Ki [1]?
**A.** Its Ki is 3.2 nM.

**Q.** How did the Ki [2] turn out when `COc1nc(N2CC3C(c4ccccc4)(C2)NC(=N)N(C)S3(=O)=O)nc(OC)c1F` (racemic) [Ex. 13] was run?
**A.** The Ki was 30 nM.

**Q.** Which Ki [2] does the source give for `COCc1cc(OC)nc(N2CC3[C@](c4cc(F)c(F)cc4F)(C2)NC(=N)N(C)S3(=O)=O)c1` (some centres unmarked) [Ex. 7] here?
**A.** The Ki was 7 nM.

**Q.** And the Ki [1]?
**A.** The Ki was 3.2 nM.

**Q.** For `COCc1cc(OC)nc(N2C[C@@H]3[C@](c4cc(F)ccc4F)(C2)NC(=N)N(C)S3(=O)=O)c1` (stereo in doubt) [Ex. 9], which Ki [1] is on record?
**A.** The Ki was 1.7 nM.

**Q.** With `COc1nc(N2CC3[C@](c4ccc(F)cc4F)(C2)NC(=N)N(C)S3(=O)=O)nc(C)c1F` (some centres unmarked) [Ex. 6] as the compound, how does the Ki [1] read?
**A.** Its Ki is 8.5 nM.

**Q.** With `CCc1nc(N2CC3C(c4ccccc4)(C2)NC(=N)N(C)S3(=O)=O)nc(OC)c1F` (racemic) [Ex. 15] as the compound, how does the Ki [2] read?
**A.** The Ki was 82 nM.

**Q.** For `COc1nc(N2CC3[C@](c4cc(NC(=O)c5ccc(F)cn5)ccc4F)(C2)NC(=N)N(C)S3(=O)=O)nc(C)c1F` (mixture of isomers) [Ex. 19], which Ki [2] is on record?
**A.** The Ki was 1.2 nM.

**Q.** What about the Ki [1] of the same compound?
**A.** The Ki was 1.6 nM.

**Q.** What does the source list for `COc1nc(N2C[C@@H]3[C@](c4cc(F)c(F)cc4F)(C2)NC(=N)N(C)S3(=O)=O)nc(C)c1F` (stereo in doubt) [Ex. 5]?
**A.** Ki [2]: 32 nM; Ki [1]: 19 nM

**Q.** `Cc1cccc(N2CC3C(c4ccccc4)(C2)NC(=N)N(C)S3(=O)=O)c1` (racemic) [Ex. 17] was tested. Which Ki [2] did it give?
**A.** The Ki was 1560 nM.

**Q.** For `COCc1cc(OC)nc(N2CC3[C@](c4ccccc4F)(C2)NC(=N)N(C)S3(=O)=O)c1` (some centres unmarked) [Ex. 8], which Ki [2] is on record?
**A.** The Ki was 7 nM.

**Q.** And the Ki [1]?
**A.** The Ki was 5 nM.

**Q.** With `COc1nc(N2C[C@@H]3[C@](c4ccccc4F)(C2)NC(=N)N(C)S3(=O)=O)nc(C)c1F` (stereo in doubt) [Ex. 4] as the compound, how does the Ki [1] read?
**A.** The Ki was 5.4 nM.
